In brackets after ≈: the same amount, converted by molar mass. Structures can show the parent of a compound that is named as a salt.
Legend:
[1] = system: P388 mouse leukemia cell line; assay: In vitro cytotoxicity (MTT), P388; type: cell-based; settings: P388, 72 h, read-out: In Vitro Cytotoxicity (IC50)
Experimental: (§1) Metabolic activity was measured by the cells' ability to reduce the tetrazolium dye, 3-(4,5-dimethylthiazol-2-yl)-2,5-diphenyltetrazolium bromide (MTT), to a quantifiable colored formasan derivative. Surviving cells reduce the MTT dye. The inhibitory concentrations of killing 50% of the cells (IC50 s) were calculated. Testing was in accord with the following protocol:
(§2) Test compounds and a reference antineoplastic agent, ADRIAMYCIN (doxorubicin hydrochloride), were dissolved in dimethyl sulfoxide (DMSO) and diluted, first with Earle's Balanced Salt Solution, followed by culture medium, to twice the highest concentration of the compound to be tested. From this concentrated stock, two-fold serial dilutions were prepared in 96-well microtiter trays, each well containing twice the desired final concentration of the compound. Each concentration was tested in triplicate and compared to triplicate drug-free controls.
(§3) The cells were grown in the same medium used for diluting the compounds. Adherent cells were harvested by trypsinization according to the following procedure:
(§4) After harvesting by trypsinization, viable cell counts were determined and cell density was adjusted to 25,000 cells/mL. Inoculum (0.1 mL) was then added to each well for a final concentration of 2,500 cells per well. Addition of the inoculum was used to dilute the test compounds to the desired concentration.
(§5) Microtiter trays were incubated for three days at 36° C. in a humidified atmosphere containing 5% carbon dioxide.
(§6) After three days, 20 microliters of 5 mg/mL MTT in phosphate-buffered solution were added to each well of the microtiter trays. The microtiter trays were then returned to the incubator for two to four hours to allow the surviving cells to reduce the dye. After this incubation, both the medium and the unreduced dye were removed by aspiration. DMSO was added to each well to dissolve the water-insoluble, colored end product of the dye reduction for spectrophotometric measurement at 570 nm.
(§7) Compounds from Examples 4, 6, 8, 9 and 10 were additionally tested against human and murine tumor cell lines A549, HT-29, P388-D1, P388, P388-ADR(0.0), P388-ADR(0.1) and B16F109. (P388 is a mouse leukemia cell line similar to P388-D1, but animal-passaged; P388-ADR (0.0) is an ADRIAMYCIN-resistant variant of P388, the inoculum of which is grown in drug-free medium; P388-ADR (0.1) is an ADRIAMYCIN-resistant variant of P388, the inoculum of which is grown in medium with 0.1 mcg.ml ADRIAMYCIN; and B16F10 is a mouse melanoma.) The results are presented in Table 2; as shown in the table, the compounds of the present invention are effective cytotoxic agents even against the ADRIAMYCIN-resistant cell line P388-ADR.

Lewis lung carcinoma = assay: In vivo activity against Lewis lung carcinoma (subcutaneous); set-up: species or system mouse; settings: IP days 1-9, tumor weight day 14
Experimental: Compound A and the compound of Example 8 were also tested against solid tumors, namely Lewis lung carcinoma on the one hand and C-26 colon adenocarcinoma and M5076 ovadan sarcoma on the other. Lewis lung carcinoma was inoculated subcutaneously to flanks of mice on day 0. The compound being tested (Compound A) was administered intraperitoneally (IP) from day 1 to day 9 for a total of nine injections. Tumor weights were measured on day 14 and drug efficacy assessed based on reduction of mean tumor mass (MTM), expressed as the percent ratio of treated (T) to control (C) MTM's. Compounds having % MTM(T/C) values of less than or equal to 40 are considered to have significant activity. These values are shown below in Table 4.

Aqueous solubility = type: physicochemical; settings: water
Text: The effect of peptidyl substitution on the solubility of the compounds of the invention was examined by dissolving samples thereof in water.

B16F10 mouse melanoma = assay: In vitro cytotoxicity (MTT), B16F10; type: cell-based; settings: B16-F10, 72 h, read-out: In Vitro Cytotoxicity (IC50)
Experimental: as §1, §2, §3, §4, §5, §6, §7

[2] = system: A549 human lung cancer cell line; assay: In vitro cytotoxicity (MTT), A549; type: cell-based; settings: A549, 72 h, read-out: In Vitro Cytotoxicity (IC50), A549, Table 2, ADR: average of two tests
Experimental: as §1, §2, §3, §4, §5, §6
(§8) The results obtained which clearly show the cytotoxicity of the compounds of Examples 5, 6, 7 and 8 against […] tumor cell lines A549, HCT-8, HT-29 and P388-D1, are illustrated in Table 1. (A549 is a human lung cancer cell line; HCT-8 is a human colon cancer cell line; HT-29 is a human colon cancer cell line; and P388-D1 is a mouse leukemia cell line.)

P388 ascitic leukemia = assay: In vivo activity against systemic tumor P388; set-up: species or system mouse; settings: five days
Experimental: Prior to testing, P388 was propagated intraperitoneally in female DBA2 mice. The ascitic tumors were intraperitoneally injected in female B6 D2 F1 mice at a concentration of 10^6 cells per mouse. The mice were treated with antiumor agents administered once daily for five consecutive days, with the antineoplastic 5-fluorouracil used as a positive control.
All drugs were administered intraperitoneally in 5% aqueous dextrose or other suitable diluent. Drug efficacy was evaluated based on prolongation of mean survival time (MST). Improvement of MST was calculated as % MST(T/C), the percent ratio of mean survival times of test (T) versus control (C) mice. Compounds having % MST(T/C) values greater than 125 are considered to have significant activity. The antitumor activity of the two compounds in the P388 systemic leukemia model is illustrated in Table 3 below.

[3] = system: P388-ADR(0.0), ADRIAMYCIN-resistant variant of P388; assay: In vitro cytotoxicity (MTT), P388-ADR(0.0); type: cell-based; settings: Mus musculus, 72 h, inoculum grown in drug-free medium, Table 2
Experimental: as §1, §2, §3, §4, §5, §6, §7

[4] = system: HT-29 human colon cancer cell line; assay: In vitro cytotoxicity (MTT), HT-29; type: cell-based; settings: HT-29, 72 h, read-out: In Vitro Cytotoxicity (IC50), HT-29, Table 2, ADR: average of two tests
Experimental: as §1, §2, §3, §4, §5, §6, §8

[5] = system: C-26 colon adenocarcinoma; assay: In vivo activity against C-26 implanted intraperitoneally (Example 44); set-up: species or system mouse
Experimental: (§9) The title compound of Example 37 above was tested against solid tumors in mice, using 1,3-bis(2-chloroethyl)-1-nitrosourea (BCNU) as a positive control. The tumor lines were M5076, an ovarian sarcoma implanted intraperitoneally (IP), and C-26, a colon adenocarcinoma, implanted intraperitoneally (IP) and subcutaneously (SC) in separate trials.
(§10) All drugs were administered in 5% aqueous dextrose or other suitable diluent. Drug efficacy was determined by prolonged survival times of the test animals or reduced tumor mass as compared to negative controls. Test groups consisted of 10 mice. Control groups consisted of 20 mice. Animals were of one sex and of similar weight. Prior to testing, the tumor cell lines were propagated in BALB/cj mice. Tumor implants were aliquots of a donor pool brei,
(§11) In the IP trials, the mean survival time (MST) of the groups of mice was determined, not counting animals surviving at the conclusion of the trial, and the mean lifespan comparison value of % MST(T/C) calculated, which value represents the ratio of treated to control group MST's expressed as a percentage.
For C-26 colon adenocarcinoma, the tumor was implanted into CD2 F1 mice, IP and SC in separate trials. For the C-26 IP trial, the tumor was implanted IP on day 0. The test compound were administered four times a day IP from day 1 to day 9 for a total of nine days. BCNU was administered four times a day on days 1, 5 and 9.

[6] = system: C-26 colon adenocarcinoma; assay: In vivo activity against C-26 implanted subcutaneously (Example 44); set-up: species or system mouse
Experimental: as §9, §10
For the C-26 SC trial, the tumor was implanted SC into mice on day 0. The test compound was administered four times a day IP from day 1 to day 9 for a total of nine days. BCNU was administered four times a day on days 1, 5, and 9. The mean tumor masses were determined on day 11 and day 21, and the experiment terminated on day 60. The mean tumor mass (MTM) inhibition value of % MTM(T/C) was calculated, which value represents the ratio of treated to control group MTM's expressed as a percentage.

M5076 ovarian sarcoma = assay: In vivo activity against M5076 implanted intraperitoneally (Example 44); set-up: species or system mouse
Experimental: as §9, §10, §11
For M5076 ovarian sarcoma, the tumor was implanted IP into BDF1 mice on day 0. The test compound was administered four times a day IP from day 1 to day 9 for a total of nine days.

[7] = 10 mg/kg, compound 37 days 1-9, BCNU days 1, 5, 9
[8] = day 11, 10 mg/kg, compound 37 days 1-9, BCNU days 1, 5, 9
[9] = day 21, 10 mg/kg, compound 37 days 1-9, BCNU days 1, 5, 9

## NC1CCN(c2c(F)cc3c(=O)c(C(=O)O)cn4c3c2Oc2ccccc2-4)C1 (stereo not shown) [Compound A, 1-(3-aminopyrrolidin-1-yl)-2-fluoro-4-oxo-4H-[2,3,4-i,j][1,4]benzoxazine-5-carboxylic acid]
[1]
  IC50: 0.019 µg/mL (≈ 0.0498 µM)
Lewis lung carcinoma; dose 6.25
  Lewis Lung % MTM(T/C): 68%
Lewis lung carcinoma; dose 12.5
  Lewis Lung % MTM(T/C): 67%
Lewis lung carcinoma; dose 25
  Lewis Lung % MTM(T/C): 47%
Lewis lung carcinoma; dose 50
  Lewis Lung % MTM(T/C): 41%
Aqueous solubility
  solubility: 8.8 mg/mL (≈ 23100 µM)
B16F10 mouse melanoma
  IC50: 0.021 µg/mL (≈ 0.0551 µM)
[2]
  IC50: 0.26 µg/mL (≈ 0.682 µM)
P388 ascitic leukemia; 6.25 mg/kg IP once daily
  % MST(T/C): 160%
P388 ascitic leukemia; 12.5 mg/kg IP once daily
  % MST(T/C): 165%
P388 ascitic leukemia; 25 mg/kg IP once daily
  % MST(T/C): 170%
P388 ascitic leukemia; 50 mg/kg IP once daily
  % MST(T/C): 180%
[3]
  IC50: 0.12 µg/mL (≈ 0.315 µM)
[4]
  IC50: 0.1 µg/mL (≈ 0.262 µM)

## C[C@H](N)C(=O)N[C@@H](C)C(=O)NC1CCN(c2c(F)cc3c(=O)c(C(=O)O)cn4c3c2Oc2ccccc2-4)C1 (stereo partly shown) [Example 37, 1-(3-Alanylalanylaminopyrrolidin-1-yl)-2-fluoro-4-oxo-4H-quino[2,3,4-i,j][1,4]benzoxazine-5-carboxylic acid hydrochloride]
Aqueous solubility
  solubility: 28.2 mg/mL
[5]; 2.5 mg/kg IP days 1-9
  % MST(T/C): 147%
  MST: 30.3
[5]; 5 mg/kg IP days 1-9
  % MST(T/C): 174%
  MST: 36.0
[5]; [7]
  % MST(T/C): 195%
  MST: 40.2
[5]; 20 mg/kg (footnote a)
  test animals that survived the trial: Three of ten test animals survived the trial
[5]; 20 mg/kg IP days 1-9
  % MST(T/C): 197%
  MST: 40.7
[5]; C-26 IP, in words
  improvement in survival time: significant improvement in survival time
[6]; day 11, 2.5 mg/kg
  % MTM(T/C): 97%
  MTM: 302 mg
[6]; day 11, 5 mg/kg
  % MTM(T/C): 66%
  MTM: 205 mg
[6]; [8]
  % MTM(T/C): 24%
  MTM: 74 mg
[6]; day 11, 20 mg/kg
  % MTM(T/C): 0%
  MTM: 0 mg
[6]; day 21, 2.5 mg/kg
  % MTM(T/C): 79%
  MTM: 2617 mg
[6]; day 21, 5 mg/kg
  % MTM(T/C): 75%
  MTM: 2462 mg
[6]; [9]
  % MTM(T/C): 41%
  MTM: 1336 mg
[6]; day 21, 20 mg/kg
  % MTM(T/C): 5%
  MTM: 169 mg
[6]; days 11 and 21, in words
  activity against tumor implanted subcutaneously: significantly active
M5076 ovarian sarcoma; 12.5 mg/kg (footnote b)
  test animals that survived the trial: One of ten test animals survived the trial
M5076 ovarian sarcoma; 12.5 mg/kg IP days 1-9
  % MST(T/C): 215%
  MST: 44.6
M5076 ovarian sarcoma; 25 mg/kg (footnote a)
  Toxicity due to the test compound: Toxicity due to the test compound noted
M5076 ovarian sarcoma; 25 mg/kg IP days 1-9
  % MST(T/C): 45%
  MST: 9.3
M5076 ovarian sarcoma; 50 mg/kg (footnote a)
  Toxicity due to the test compound: Toxicity due to the test compound noted
M5076 ovarian sarcoma; 50 mg/kg IP days 1-9
  % MST(T/C): 21%
  MST: 4.4
M5076 ovarian sarcoma; 100 mg/kg (footnote a)
  Toxicity due to the test compound: Toxicity due to the test compound noted
M5076 ovarian sarcoma; 100 mg/kg IP days 1-9
  % MST(T/C): 15%
  MST: 3.2
M5076 ovarian sarcoma; M5076 IP, in words
  improvement in survival time: significant improvement in survival time

— patent publication US5624924A, “Quinobenzothiazine antineoplastic agents” (priority 1994, dated 1997)
